This note sets out measurements from PubChem BioAssay AID651574 (The Scripps Research Institute Molecular Screening Center, 2012).

Molecules are shown by their SMILES. pIC50: −log10 of the molar value. Activity calls are given as the source filed them. How the calls were made is not given here.

In this test the test system is Core protein (Hepatitis C virus). The experiment in a line: reduction of HCV RNA in infected cells – cell-based, fluorescence qPCR, two timepoints, counter-screen for HCV core dimerization inhibitor project, late-stage follow-up (AID 651574). Particulars: viral RNA qPCR.

Take `Cc1ccc(Cc2c(C)nc3nc(SCC(=O)NCCN4CCOCC4)nn3c2C)cc1`: for the setting “timepoint 1”, the pIC50 is 4.92.

As to `Cc1ccc(Cc2c(C)nc3nc(SCC(=O)NCCN4CCN(S(=O)(=O)c5ccccc5)CC4)nn3c2C)cc1`, the pIC50 was 5.28 (timepoint 1) and 4.90 (timepoint 2).

As for `Cc1ccc(Cc2c(C)nc3nc(SCC(=O)NCCN4CCNCC4)nn3c2C)cc1`, the pIC50 (timepoint 2) is 5.74.

With `Cc1ccc(Cc2c(C)nc3nc(SCC(=O)NCCN4CCCCCC4)nn3c2C)cc1`, the pIC50 runs as follows: (timepoint 1) 5.07; (timepoint 2) 4.86.

`Cc1ccc(Cc2c(C)nc3nc(SCC(=O)NCCN4CCCN(S(=O)(=O)c5ccc(C)cc5)CC4)nn3c2C)cc1`: the pIC50 reads like this: (timepoint 1) 5.57; (timepoint 2) 5.14.

Consider `Cc1ccc(Cc2c(C)nc3nc(SCC(=O)NCCN4CCN(Cc5ccc(F)cc5)CC4)nn3c2C)cc1`, for which the pIC50 (timepoint 1) is 7.00.

`Cc1ccc(Cc2c(C)nc3nc(SCC(=O)NCCN4CCCN(S(=O)(=O)c5ccccc5)CC4)nn3c2C)cc1`: the negative-log IC50 (pIC50) is 5.49 (timepoint 1) and 5.66 (timepoint 2).

With `Cc1ccc(Cc2c(C)nc3nc(SCC(=O)NCCN4CCN(CCc5ccccc5)CC4)nn3c2C)cc1`, under “timepoint 1”, the pIC50 is 5.51.

Regarding `Cc1ccc(Cc2c(C)nc3nc(SCC(=O)NCCN4CCCN(S(C)(=O)=O)CC4)nn3c2C)cc1`, the pIC50 (timepoint 1) was 4.72. The IC50 (timepoint 2) was 24.3 µM (inactive).

Regarding `Cc1ccc(Cc2c(C)nc3nc(SCC(=O)NCCCN4CCCCCC4)nn3c2C)cc1`, the pIC50 (timepoint 1) was 5.17 and the pIC50 (timepoint 2) is 4.92.

Turning to `Cc1ccc(Cc2c(CCc3ccccc3)nc3nc(SC(Cc4ccccc4)C(=O)NCCN4CCOCC4)nn3c2C)cc1` (configuration not stated), for the setting “timepoint 1”, the pIC50 is 5.11.
